# Data reported in the supplement of paper PMC10307832.
# Legend:
# Assay in all cases: relative viability (nuclei count vs DMSO), 5 days (fraction); higher = more cells survive
# ABC-1 = tested on: ABC-1
# In short: (§1)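 The day after seeding in 1536-well plates, lung cancer cell lines were treated by pin tool with a single drug, or with a fixed anchor-drug dose together with five library-drug doses (not always all listed) in √10 steps. After 5 days, a combined fix-and-stain solution (final 0.05% Triton X-100, 1% formaldehyde, 1 ug/ml Hoechst) was added. Nuclei counted on 4× images gave relative viability as treated counts over vehicle counts, reported as the median of duplicate plates.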
# CAL-12T = tested on: CAL-12T
# In short: as §1
# ChaGo-K-1 = tested on: ChaGo-K-1
# In short: as §1
# EPLC-272H = tested on: EPLC-272H
# In short: as §1
# HCC-366 = tested on: HCC-366
# In short: as §1
# HCC-78 = tested on: HCC-78
# In short: as §1
# LC-2-ad = tested on: LC-2-ad
# In short: as §1
# LOU-NH91 = tested on: LOU-NH91
# In short: as §1
# LU99A = tested on: LU99A
# In short: as §1
# NCI-H1651 = tested on: NCI-H1651
# In short: as §1
# NCI-H1734 = tested on: NCI-H1734
# In short: as §1
# NCI-H1755 = tested on: NCI-H1755
# In short: as §1
# NCI-H1944 = tested on: NCI-H1944
# In short: as §1
# NCI-H2087 = tested on: NCI-H2087
# In short: as §1
# NCI-H2170 = tested on: NCI-H2170
# In short: as §1
# NCI-H2228 = tested on: NCI-H2228
# In short: as §1
# NCI-H2405 = tested on: NCI-H2405
# In short: as §1
# NCI-H3122 = tested on: NCI-H3122
# In short: as §1
# NCI-H460 = tested on: NCI-H460
# In short: as §1
# PC-3 [JPC-3] = tested on: PC-3 [JPC-3]
# In short: as §1
# RERF-LC-KJ = tested on: RERF-LC-KJ
# In short: as §1
# UMC-11 = tested on: UMC-11
# In short: as §1
structure (smiles),measurement,setting,value
C[C@@H]1CN(CC(=O)Nc2ccc3c(c2)Cc2cccc(-c4cc(=O)cc(N5CCOCC5)o4)c2S3)C[C@H](C)O1 + C[C@@H](Oc1cc(-c2cnn(C3CCNCC3)c2)cnc1N)c1c(Cl)ccc(F)c1Cl [Crizotinib] (partner 1 µM),relative viability,ABC-1; first compound 0.1265 µM,1.17
same,relative viability,ABC-1; first compound 0.4 µM,1.15
same,relative viability,ABC-1; first compound 4 µM,0.723
same,relative viability,CAL-12T; first compound 0.04 µM,0.644
same,relative viability,CAL-12T; first compound 0.1265 µM,0.526
same,relative viability,CAL-12T; first compound 0.4 µM,0.693
same,relative viability,CAL-12T; first compound 4 µM,0.297
same,relative viability,ChaGo-K-1; first compound 0.1265 µM,1.09
same,relative viability,ChaGo-K-1; first compound 0.4 µM,1.21
same,relative viability,ChaGo-K-1; first compound 4 µM,1.13
same,relative viability,EPLC-272H; first compound 0.04 µM,1.27
same,relative viability,EPLC-272H; first compound 0.1265 µM,0.971
same,relative viability,EPLC-272H; first compound 0.4 µM,0.997
same,relative viability,EPLC-272H; first compound 4 µM,0.83
same,relative viability,HCC-366; first compound 0.04 µM,0.5
same,relative viability,HCC-366; first compound 0.1265 µM,0.532
same,relative viability,HCC-366; first compound 0.4 µM,0.414
same,relative viability,HCC-366; first compound 4 µM,0.414
same,relative viability,HCC-78; first compound 0.04 µM,0.344
same,relative viability,HCC-78; first compound 0.1265 µM,0.349
same,relative viability,HCC-78; first compound 0.4 µM,0.308
same,relative viability,HCC-78; first compound 4 µM,0.348
same,relative viability,LC-2-ad; first compound 0.04 µM,0.386
same,relative viability,LC-2-ad; first compound 0.1265 µM,0.455
same,relative viability,LC-2-ad; first compound 0.4 µM,0.434
same,relative viability,LC-2-ad; first compound 4 µM,0.43
same,relative viability,LOU-NH91; first compound 0.04 µM,0.764
same,relative viability,LOU-NH91; first compound 0.1265 µM,0.752
same,relative viability,LOU-NH91; first compound 0.4 µM,0.948
same,relative viability,LOU-NH91; first compound 4 µM,0.72
same,relative viability,LU99A; first compound 0.04 µM,0.523
same,relative viability,LU99A; first compound 0.1265 µM,0.636
same,relative viability,LU99A; first compound 0.4 µM,0.64
same,relative viability,LU99A; first compound 4 µM,0.569
same,relative viability,NCI-H1651; first compound 0.04 µM,0.842
same,relative viability,NCI-H1651; first compound 0.1265 µM,0.859
same,relative viability,NCI-H1651; first compound 0.4 µM,0.903
same,relative viability,NCI-H1651; first compound 4 µM,0.882
same,relative viability,NCI-H1734; first compound 0.04 µM,0.762
same,relative viability,NCI-H1734; first compound 0.1265 µM,0.651
same,relative viability,NCI-H1734; first compound 0.4 µM,0.627
same,relative viability,NCI-H1734; first compound 4 µM,0.663
same,relative viability,NCI-H1755; first compound 0.04 µM,0.92
same,relative viability,NCI-H1755; first compound 0.1265 µM,0.86
same,relative viability,NCI-H1755; first compound 0.4 µM,0.816
same,relative viability,NCI-H1755; first compound 4 µM,0.792
same,relative viability,NCI-H1944; first compound 0.1265 µM,1.09
same,relative viability,NCI-H1944; first compound 0.4 µM,1.22
same,relative viability,NCI-H1944; first compound 4 µM,1.16
same,relative viability,NCI-H2087; first compound 0.04 µM,0.936
same,relative viability,NCI-H2087; first compound 0.1265 µM,0.929
same,relative viability,NCI-H2087; first compound 0.4 µM,0.895
same,relative viability,NCI-H2087; first compound 4 µM,0.748
same,relative viability,NCI-H2170; first compound 0.1265 µM,1.2
same,relative viability,NCI-H2170; first compound 0.4 µM,1.21
same,relative viability,NCI-H2170; first compound 4 µM,1.1
same,relative viability,NCI-H2228; first compound 0.04 µM,0.568
same,relative viability,NCI-H2228; first compound 0.1265 µM,0.394
same,relative viability,NCI-H2228; first compound 0.4 µM,0.283
same,relative viability,NCI-H2228; first compound 4 µM,0.341
same,relative viability,NCI-H2405; first compound 0.04 µM,0.754
same,relative viability,NCI-H2405; first compound 0.1265 µM,0.855
same,relative viability,NCI-H2405; first compound 0.4 µM,0.893
same,relative viability,NCI-H2405; first compound 4 µM,0.8
same,relative viability,NCI-H3122; first compound 0.04 µM,0.349
same,relative viability,NCI-H3122; first compound 0.1265 µM,0.324
same,relative viability,NCI-H3122; first compound 0.4 µM,0.264
same,relative viability,NCI-H3122; first compound 4 µM,0.282
same,relative viability,NCI-H460; first compound 0.04 µM,0.973
same,relative viability,NCI-H460; first compound 0.1265 µM,0.924
same,relative viability,NCI-H460; first compound 0.4 µM,0.971
same,relative viability,NCI-H460; first compound 4 µM,0.662
same,relative viability,PC-3 [JPC-3]; first compound 0.04 µM,0.947
same,relative viability,PC-3 [JPC-3]; first compound 0.1265 µM,0.936
same,relative viability,PC-3 [JPC-3]; first compound 0.4 µM,0.971
same,relative viability,PC-3 [JPC-3]; first compound 4 µM,0.962
same,relative viability,RERF-LC-KJ; first compound 0.04 µM,0.861
same,relative viability,RERF-LC-KJ; first compound 0.1265 µM,0.779
same,relative viability,RERF-LC-KJ; first compound 0.4 µM,0.909
same,relative viability,RERF-LC-KJ; first compound 4 µM,0.722
same,relative viability,UMC-11; first compound 0.04 µM,0.747
same,relative viability,UMC-11; first compound 0.1265 µM,0.644
same,relative viability,UMC-11; first compound 0.4 µM,0.613
same,relative viability,UMC-11; first compound 4 µM,0.385
